# Data published in patent US20250320227A1, “MACROCYCLIC OREXIN RECEPTOR AGONISTS AND USES THEREOF” (Jazz Pharmaceuticals Ireland Limited, priority 2022, published 2025).
# pEC50: −log10 of the molar value.
# Target: T1, human recombinant OX2 (hOX2) receptors expressed in CHO cells (Homo sapiens, UniProt O43614)
# T1 construct: host or cells: CHO cells (hOX2-CHO)
# T1 sequence (O43614 1-444): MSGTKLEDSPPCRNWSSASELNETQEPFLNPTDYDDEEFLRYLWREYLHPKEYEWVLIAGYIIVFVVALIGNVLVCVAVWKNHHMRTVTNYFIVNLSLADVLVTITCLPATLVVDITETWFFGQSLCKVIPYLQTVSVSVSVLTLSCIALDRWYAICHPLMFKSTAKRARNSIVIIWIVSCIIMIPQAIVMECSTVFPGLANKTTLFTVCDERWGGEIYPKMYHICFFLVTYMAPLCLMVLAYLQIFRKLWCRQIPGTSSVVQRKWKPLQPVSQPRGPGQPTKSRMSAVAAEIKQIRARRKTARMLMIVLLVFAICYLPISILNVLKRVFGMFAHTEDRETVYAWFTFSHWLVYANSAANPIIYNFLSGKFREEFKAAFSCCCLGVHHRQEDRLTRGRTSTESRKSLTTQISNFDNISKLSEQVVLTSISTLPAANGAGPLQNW
# Experiment: IP-1 accumulation assay (IP-One HTRF) in hOX2-CHO cells
# Assay type: cell-based
# Conditions: 60 min incubation at 37° C., mean of at least two independent experiments, read-out: EC50_OX2R Category
# How it was run: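 CHO cells in suspension in HBSS/20 mM HEPES pH 7.4 with 50 mM LiCl and 0.1% BSA, given compound (11-point series, 0.5% DMSO) for 60 min at 37 °C. IP-1 read by HTRF ratio, scaled to maximal OX-A response; EC50 from four-parameter fit, mean of ≥2 experiments.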
row,SMILES,pEC50
1,"O=C1COC[C@@]2(CCCN3C(=O)C4(CC4)COc4ccccc4[C@H]4CC[C@H](CC4)OC[C@H]32)N1 (single isomer, unassigned) [Example 37a, (1′s,16′S,17′R,20′s)-dispiro[cyclopropane-1,10′-[8,19]dioxa-[12]azatetracyclo[18.2.2.0^2,70.0^12,17]tetracosane-16′,3″-morpholine]-2′(7′),3′,5′-triene-5″,11′-dione]",> 7.00
2,"O=C1COC[C@]2(CCCN3C(=O)C4(CC4)COc4ccccc4[C@H]4CC[C@H](CC4)OC[C@@H]32)N1 (single isomer, unassigned) [Example 37b, (1′s,16′R,17′S,20′s)-dispiro[cyclopropane-1,10′-[8,19]dioxa-[12]azatetracyclo[18.2.2.0^2,70.0^12,17]tetracosane-16′,3″-morpholine]-2′(7′),3′,5′-triene-5″,11′-dione]",5.00 to 6.00
3,"O=C1COC[C@@]2(CCCN3C(=O)COc4c(F)cccc4[C@H]4CC[C@H](CC4)OC[C@H]32)N1 (single isomer, unassigned) [Example 38a]",> 7.00
4,"O=C1COC[C@]2(CCCN3C(=O)COc4c(F)cccc4[C@H]4CC[C@H](CC4)OC[C@@H]32)N1 (single isomer, unassigned) [Example 38b]",5.00 to 6.00
5,"O=C1COC[C@@]2(CCCN3C(=O)COc4c(F)cc(F)cc4[C@H]4CC[C@H](CC4)OC[C@H]32)N1 (single isomer, unassigned) [Example 39a]",< 5.00
6,"O=C1COC[C@]2(CCCN3C(=O)COc4c(F)cc(F)cc4[C@H]4CC[C@H](CC4)OC[C@@H]32)N1 (single isomer, unassigned) [Example 39b]",> 7.00
7,"O=C1COC[C@@]2(CCCN3C(=O)COc4cccc(F)c4[C@H]4CC[C@H](CC4)OC[C@H]32)N1 (single isomer, unassigned) [Example 40a]",> 7.00
8,"O=C1COC[C@]2(CCCN3C(=O)COc4cccc(F)c4[C@H]4CC[C@H](CC4)OC[C@@H]32)N1 (single isomer, unassigned) [Example 40b]",5.00 to 6.00
9,"O=C1COC[C@@]2(CCCN3C(=O)COc4ccc(F)cc4[C@H]4CC[C@H](CC4)OC[C@H]32)N1 (single isomer, unassigned) [Example 41a]",> 7.00
10,"O=C1COC[C@]2(CCCN3C(=O)COc4ccc(F)cc4[C@H]4CC[C@H](CC4)OC[C@@H]32)N1 (single isomer, unassigned) [Example 41b]",5.00 to 6.00
11,"O=C1COC[C@@]2(CCCN3C(=O)COc4cc(F)cc(F)c4[C@H]4CC[C@H](CC4)OC[C@H]32)N1 (single isomer, unassigned) [Example 42a]",> 7.00
12,"O=C1COC[C@]2(CCCN3C(=O)COc4cc(F)cc(F)c4[C@H]4CC[C@H](CC4)OC[C@@H]32)N1 (single isomer, unassigned) [Example 42b]",6.00 to 7.00
13,"O=C1COC[C@@]2(CCCN3C(=O)COc4ccc(F)c(F)c4[C@H]4CC[C@H](CC4)OC[C@H]32)N1 (single isomer, unassigned) [Example 43a]",> 7.00
14,"O=C1COC[C@]2(CCCN3C(=O)COc4ccc(F)c(F)c4[C@H]4CC[C@H](CC4)OC[C@@H]32)N1 (single isomer, unassigned) [Example 43b]",< 5.00
15,"O=C1COC[C@@]2(CCCN3C(=O)COc4c(F)ccc(F)c4[C@H]4CC[C@H](CC4)OC[C@H]32)N1 (single isomer, unassigned) [Example 44a]",> 7.00
16,"O=C1COC[C@]2(CCCN3C(=O)COc4c(F)ccc(F)c4[C@H]4CC[C@H](CC4)OC[C@@H]32)N1 (single isomer, unassigned) [Example 44b]",< 5.00
17,"O=C1COC[C@@]2(CCCN3C(=O)COc4ncccc4[C@H]4CC[C@H](CC4)OC[C@H]32)N1 (single isomer, unassigned) [Example 45a]",> 7.00
18,"O=C1COC[C@@]2(CCCN3C(=O)COc4nccc(F)c4[C@H]4CC[C@H](CC4)OC[C@H]32)N1 (single isomer, unassigned) [Example 46a]",> 7.00
19,"O=C1COC[C@]2(CCCN3C(=O)COc4nccc(F)c4[C@H]4CC[C@H](CC4)OC[C@@H]32)N1 (single isomer, unassigned) [Example 46b]",5.00 to 6.00
20,"Cc1cccc2c1[C@H]1CC[C@H](CC1)OC[C@@H]1N(CCC[C@@]13COCC(=O)N3)C(=O)CO2 (single isomer, unassigned) [Example 47a]",> 7.00
21,"Cc1cccc2c1[C@H]1CC[C@H](CC1)OC[C@H]1N(CCC[C@]13COCC(=O)N3)C(=O)CO2 (single isomer, unassigned) [Example 47b]",5.00 to 6.00
22,"O=C1COC[C@@]2(CCCN3C(=O)CCOc4c(F)cccc4[C@H]4CC[C@H](CC4)OC[C@H]32)N1 (single isomer, unassigned) [Example 48a]",> 7.00

row,SMILES,pEC50
1,"O=C1COC[C@]2(CCCN3C(=O)CCOc4c(F)cccc4[C@H]4CC[C@H](CC4)OC[C@@H]32)N1 (single isomer, unassigned) [Example 48b]",> 7.00
2,"O=C1COC[C@@]2(CCCN3C(=O)CCOc4ccc(F)cc4[C@H]4CC[C@H](CC4)OC[C@H]32)N1 (single isomer, unassigned) [Example 49a]",> 7.00
3,"O=C1COC[C@]2(CCCN3C(=O)CCOc4ccc(F)cc4[C@H]4CC[C@H](CC4)OC[C@@H]32)N1 (single isomer, unassigned) [Example 49b]",> 7.00
4,"O=C1COC[C@@]2(CCCN3C(=O)CCOc4c(F)cc(F)cc4[C@H]4CC[C@H](CC4)OC[C@H]32)N1 (single isomer, unassigned) [Example 50a]",> 7.00
5,"O=C1COC[C@]2(CCCN3C(=O)CCOc4c(F)cc(F)cc4[C@H]4CC[C@H](CC4)OC[C@@H]32)N1 (single isomer, unassigned) [Example 50b]",6.00 to 7.00
6,"O=C1COC[C@@]2(CCCN3C(=O)OCCOc4cccc(c4)[C@H]4CC[C@H](CC4)OC[C@H]32)N1 (single isomer, unassigned) [Example 53a]",> 7.00
7,"O=C1COC[C@]2(CCCN3C(=O)OCCOc4cccc(c4)[C@H]4CC[C@H](CC4)OC[C@@H]32)N1 (single isomer, unassigned) [Example 53b]",< 5.00
8,"O=C1COC[C@@]2(CCCN3C(=O)OCCCOc4cccc(c4)[C@H]4CC[C@H](CC4)OC[C@H]32)N1 (single isomer, unassigned) [Example 54a]",> 7.00
9,"O=C1COC[C@]2(CCCN3C(=O)OCCCOc4cccc(c4)[C@H]4CC[C@H](CC4)OC[C@@H]32)N1 (single isomer, unassigned) [Example 54b]",5.00 to 6.00
10,"O=C1N[C@]2(CCCN3C(=O)COc4ccccc4[C@H]4CC[C@H](CC4)OC[C@H]32)COC1F (single isomer, unassigned) [Example 56a]",> 7.00
11,"O=C1N[C@@]2(CCCN3C(=O)COc4ccccc4[C@H]4CC[C@H](CC4)OC[C@@H]32)COC1F (single isomer, unassigned) [Example 56b]",> 7.00
12,"O=C1CCC[C@@]2(CCCN3C(=O)COc4ccccc4[C@H]4CC[C@H](CC4)OC[C@H]32)N1 (single isomer, unassigned) [Example 58a]",> 7.00
13,"O=C1CCC[C@]2(CCCN3C(=O)COc4ccccc4[C@H]4CC[C@H](CC4)OC[C@@H]32)N1 (single isomer, unassigned) [Example 58b]",< 5.00
14,"O=C1COc2ccccc2[C@H]2CC[C@H](CC2)OC[C@@H]2N1CCC[C@@]21CCCS(=O)(=O)N1 (single isomer, unassigned) [Example 59a]",> 7.00
15,"O=C1COc2ccccc2[C@H]2CC[C@H](CC2)OC[C@H]2N1CCC[C@]21CCCS(=O)(=O)N1 (single isomer, unassigned) [Example 59b]",5.00 to 6.00
16,"O=C1N[C@]2(CCCN3C(=O)COc4ccccc4[C@H]4CC[C@H](CC4)OC[C@H]32)CO1 (single isomer, unassigned) [Example 67a]",> 7.00
17,"O=C1N[C@@]2(CCCN3C(=O)COc4ccccc4[C@H]4CC[C@H](CC4)OC[C@@H]32)CO1 (single isomer, unassigned) [Example 67b]",< 5.00
18,"O=C1CS[C@@]2(CCCN3C(=O)COc4ccccc4[C@H]4CC[C@H](CC4)OC[C@H]32)N1 (single isomer, unassigned) [Example 68a]",6.00 to 7.00
19,"O=C1CS[C@]2(CCCN3C(=O)COc4ccccc4[C@H]4CC[C@H](CC4)OC[C@H]32)N1 (single isomer, unassigned) [Example 68b]",< 5.00
20,"O=C1COC[C@]2(CCCN3C(=O)C4(CC4)COc4cccc(F)c4[C@H]4CC[C@H](CC4)OC[C@@H]32)N1 (single isomer, unassigned) [Example 72a, (1′s,16′R,17′S,20′s)-3′-fluorodispiro [cyclopropane-1,10′-[8,19]dioxa-[12]azatetracyclo [18.2.2.0^2,^7.0^12,^17]tetracosane-16′,3″- morpholine]-2′,4′,6′-triene-5″,11′-dione]",5.00 to 6.00
21,"O=C1COC[C@@]2(CCCN3C(=O)C4(CC4)COc4cccc(F)c4[C@H]4CC[C@H](CC4)OC[C@H]32)N1 (single isomer, unassigned) [Example 72b, (1′s,16′S,17′R,20′s)-3′-fluorodispiro[cyclopropane-1,10′-[8,19]dioxa-[12]azatetracyclo [18.2.2.0^2,^7.0^12,^17]tetracosane-16′,3″- morpholine]-2′,4′,6′-triene-5″,11′-dione]",> 7.00
